The conditions of this series: Liquid, Closed cell (Static) method.

± gives the expanded uncertainty stated by the source.

For the molecule `O=C=O` [carbon dioxide], under “273.15 K”, the “vapor or sublimation pressure” value stood at 3487 ± 13 kPa.
Consider `FC(F)Cl` [chlorodifluoromethane], for which the “vapor or sublimation pressure” value (273.15 K) is given as 498 ± 3 kPa; the “vapor or sublimation pressure” value (293.15 K) worked out at 911 ± 3 kPa; the “vapor or sublimation pressure” value (313.15 K) is 1529 ± 4 kPa; the “vapor or sublimation pressure” value (333.15 K) turned out to be 2426 ± 5 kPa; the “vapor or sublimation pressure” value (353.15 K) came out at 3664 ± 7 kPa.
For `C=C` [ethene], the “vapor or sublimation pressure” value (273.15 K) is 4094 ± 16 kPa.

By vapor or sublimation pressure is commonly meant the equilibrium pressure above the liquid or solid.

The values above are taken from the NIST ThermoML archive (doi:10.1016/j.fluid.2017.08.005).
